Test results: paper PMC6738068 (British Journal of Cancer, 2019)
Values joined by “and” are separate entries in the source; they are usually repeats but may differ in a detail not shown here. Identical values can stand only once. Like-named read-outs stand apart in the source and are kept apart here.

What was measured:
[1] = Plasma pharmacokinetics in phase 1 patients; format: in vivo, human
Description: In the expansion cohort, blood samples were collected on Day 1 for Cycle 0 and Day 28 of Cycle 1. Additional samples were drawn prior to dosing on Day 15 of subsequent cycles.
Samples were analysed in accordance with all applicable United States Federal Drug Administration (FDA) and Organisation for Economic Co-operation and Development (OECD) regulations. […] After evaporation of the extraction solvent, sample extracts were reconstituted and analysed by reversed-phase high-performance liquid chromatography using a Waters Atlantis dC18 column. The mobile phase was nebulised using heated nitrogen in a Z-spray source/interface set to electrospray positive ionisation. The ionised compounds were detected using mass spectrometry. The lower limit of quantification was 20 pg/ml. Samples were analysed at Microconstants, San Diego, CA.

[2] = test system: advanced solid tumours; test: Phase 1 efficacy assessment (RECIST v1.1); format: in vivo, human
Description: Diagnostic imaging response assessments (computed tomography or magnetic resonance imaging) were performed at baseline and at the end of every two cycles or as clinically indicated. All patients who had at least one post-baseline radiographic assessment of target, non-target, and new lesions constituted the efficacy-evaluable population. Patients were evaluated for complete response (CR), partial response (PR), stable disease (SD) ≥6 months, or progressive disease as determined by RECIST v1.1.[17] Objective response rate (ORR = CR + PR) and clinical benefit rate (CBR = CR + PR + SD ≥ 6 months) were evaluated. Data cut-off for the efficacy-evaluable population was January 21, 2019.

[3] = test system: PLK1; design: method as in printed; settings: preclinical, ref not given; cited from earlier work
[4] = test system: PLK3; design: method as in printed; settings: preclinical, ref not given; cited from earlier work
[5] = test system: Abl [T315I]; design: method as in printed; settings: preclinical, ref not given; cited from earlier work
[6] = test system: TrkB; design: method as in printed; settings: preclinical, ref not given; cited from earlier work
[7] = test system: Bmx; design: method as in printed; settings: preclinical, ref not given; cited from earlier work
[8] = test system: FGFR1; design: method as in printed; settings: preclinical, ref not given; cited from earlier work
[9] = test system: Tie2; design: method as in printed; settings: preclinical, ref not given; cited from earlier work
[10] = test system: CYP1A2; design: method as in printed; settings: preclinical testing, ref not given; cited from earlier work
[11] = test system: BCRP; design: method as in printed; settings: preclinical testing, ref not given; cited from earlier work
[12] = test system: BSEP; design: method as in printed; settings: preclinical testing, ref not given; cited from earlier work
[13] = test system: OCT1; design: method as in printed; settings: preclinical testing, ref not given; cited from earlier work
[14] = test system: OATP1B3; design: method as in printed; settings: preclinical testing, ref not given; cited from earlier work
[15] = test system: patient-derived xenograft (PDX) models across multiple tumour types; settings: preclinical, including PDX models; cited from earlier work
[16] = test system: rodents; design: method as in printed; settings: toxicology studies, ref not given; cited from earlier work
[17] = test system: dogs; design: method as in printed; settings: toxicology studies, ref not given; cited from earlier work
[18] = efficacy-evaluable population (n = 49)
[19] = patient with AKT1 E17K mutant endometrioid endometrial carcinoma
[20] = patient with MSS endometrial carcinoma

COc1ccc2c(c1)[C@]1(C[C@H]1c1ccc3c(/C=C/c4ccc(CN5C[C@@H](C)O[C@@H](C)C5)cc4)n[nH]c3c1)C(=O)N2 [CFI-400945]
dose proportionality of exposure ([1]; 3-96 mg): generally dose proportional
exposure at Day 28 higher than exposure at Day 1, average ([1]; across all dose levels): 37%
AUC(0-t) ([1]; human, plasma, oral, 64 mg, Day 1, read-out: AUC0–24 h): 428 ng·h/mL
Cmax ([1]; human, plasma, oral, 64 mg, Day 1, read-out: average Cmax): 37 ng/mL
AUC(0-t) ([1]; human, plasma, oral, 64 mg, after 28 days of dosing, read-out: AUC0–24 h): 564 ng·h/mL
Cmax ([1]; human, plasma, oral, 64 mg, after 28 days of dosing, read-out: average Cmax): 44 ng/mL
AUC(0-t) ([1]; human, plasma, oral, Day 1, read-out: AUC0–24 h values associated with grade 3/4 neutropenia): > 400 ng·h/mL
Cmax ([1]; human, plasma, oral, Day 1, read-out: Cmax values associated with grade 3/4 neutropenia): ≥ 38 ng/mL
half-life ([1]; human, plasma, oral, 64 mg, Day 1, read-out: half-life (t1/2) (converted)): 9 h
time to maximum plasma concentration (Cmax) after dosing ([1]; oral, fasting state): 2 to 4 h
Progressive disease as best response ([2]; 35/49 patients): 71%
patients with SD ≥6 months ([2]; RECIST v1.1): two and 2/13
partial responses (PR) ([2]; adenoid cystic carcinoma, 48 mg): One PR
ORR ([2]; efficacy-evaluable cohort, 1/49): 2%
CBR ([2]; efficacy-evaluable cohort, 3/49): 6%
complete responses (CR) [2, 18]: No CRs
duration on study, range [2, 18]: 0.1–40.7 months
median duration on study [2, 18]: 1.9 months
median progression-free survival [2, 18]: 3.2 months
patients with SD as best response [2, 18]: 13 patients
progression-free survival, 95% confidence interval [2, 18]: 1.6–4.9 months
lowest dose with evidence of antitumour activity ([2]; in vivo): 48 mg
target lesion reduction [2, 19]: −19%
time on study with SD [2, 19]: 6 cycles
time on study ([2]; patient with KRAS-mutant, MSS colorectal cancer, 48 mg): 12 cycles
duration of SD [2, 20]: 8 cycles
reduction in target lesions [2, 20]: 3.7%
duration of PR / time on trial, ongoing at data cut-off ([2]; patient with adenoid cystic carcinoma, 48 mg): 45 cycles
IC50 [3]: > 50000 nM
IC50 [4]: > 50000 nM
IC50 [5]: < 100 nM
IC50 [6]: < 100 nM
IC50 [7]: < 100 nM
IC50 [8]: < 100 nM
IC50 [9]: < 100 nM
time-dependent inhibition of CYP1A2 [10]: time-dependent inhibitor
inhibition of BCRP [11]: inhibitor
inhibition of BSEP [12]: inhibitor
inhibition of OCT1 [13]: inhibitor
inhibition of OATP1B3 [14]: inhibitor
in vivo antitumour activity [15]: robust in vivo antitumour activity
primary toxicities [16]: haematopoietic effects (myeloid suppression, bone marrow hypocellularity)
primary toxicities [17]: haematopoietic effects (myeloid suppression, bone marrow hypocellularity)
